Where two headings read alike, the source gives them in different places.
Columns and labels:
[1] = test system: NCI-60 human cancer cell line panel; test: NCI-60 initial one dose test; format: cell-based; conditions: 10 μM
Description: (§1) Biological evaluation. The synthesized epothilone analogues were submitted to the NCI for testing against the NCI-60 human cancer cell line panel (Shoemaker, 2006).

tubulin = test: Induction/enhancement of tubulin assembly (Lin, et al., 1996); format: biochemical; conditions: 10 μM tubulin, 0.4M monosodium glutamate, 30 min at room temperature; Table 2; read-out: induction of tubulin assembly (EC50, μM ± SD)
MCF-7 = test: Cytotoxicity, standard NCI assay with sulforhodamine B, 96 h; conditions: Homo sapiens, MCF7, 96 h, read-out: cytotoxicity (GI50, nM ± SD) MCF-7
OVCAR-8 = test: as above; conditions: Homo sapiens, OVCAR-8, 96 h, read-out: cytotoxicity (GI50, nM ± SD) OVCAR-8
A498 = test: NCI-60 human cancer cell line panel, five dose screen; format: cell-based; conditions: NCI-60 five dose screen
Description: as §1

A549/ATCC = test: as above; format: cell-based; conditions: NCI-60 five dose screen
Description: as §1

CCRF-CEM = test: as above; format: cell-based; conditions: NCI-60 five dose screen
Description: as §1

COLO 205 = test: as above; format: cell-based; conditions: NCI-60 five dose screen
Description: as §1

HCT-116 = test: as above; format: cell-based; conditions: NCI-60 five dose screen
Description: as §1

HCT-15 = test: as above; format: cell-based; conditions: NCI-60 five dose screen
Description: as §1

HL-60(TB) = test: as above; format: cell-based; conditions: NCI-60 five dose screen
Description: as §1

HOP-92 = test: as above; format: cell-based; conditions: NCI-60 five dose screen
Description: as §1

HS 578T = test: as above; format: cell-based; conditions: NCI-60 five dose screen
Description: as §1

HT29 = test: as above; format: cell-based; conditions: HT-29, NCI-60 five dose screen
Description: as §1

K-562 = test: as above; format: cell-based; conditions: K562, NCI-60 five dose screen
Description: as §1

KM12 = test: as above; format: cell-based; conditions: NCI-60 five dose screen
Description: as §1

LOX IMVI = test: as above; format: cell-based; conditions: NCI-60 five dose screen
Description: as §1

M14 = test: as above; format: cell-based; conditions: NCI-60 five dose screen
Description: as §1

MCF7 = test: as above; format: cell-based; conditions: NCI-60 five dose screen
Description: as §1

MDA-MB-435 = test: as above; format: cell-based; conditions: NCI-60 five dose screen
Description: as §1

MDA-MB-468 = test: as above; format: cell-based; conditions: NCI-60 five dose screen
Description: as §1

MOLT-4 = test: as above; format: cell-based; conditions: NCI-60 five dose screen
Description: as §1

NCI-H23 = test: as above; format: cell-based; conditions: NCI-60 five dose screen
Description: as §1

NCI-H460 = test: as above; format: cell-based; conditions: NCI-60 five dose screen
Description: as §1

OVCAR-3 = test: as above; format: cell-based; conditions: NCI-60 five dose screen
Description: as §1

PC-3 = test: as above; format: cell-based; conditions: NCI-60 five dose screen
Description: as §1

RPMI-8226 = test: as above; format: cell-based; conditions: NCI-60 five dose screen
Description: as §1

RXF 393 = test: as above; format: cell-based; conditions: NCI-60 five dose screen
Description: as §1

SF-539 = test: as above; format: cell-based; conditions: NCI-60 five dose screen
Description: as §1

SK-MEL-5 = test: as above; format: cell-based; conditions: NCI-60 five dose screen
Description: as §1

SNB-75 = test: as above; format: cell-based; conditions: NCI-60 five dose screen
Description: as §1

SR = test: as above; format: cell-based; conditions: NCI-60 five dose screen
Description: as §1

SW-620 = test: as above; format: cell-based; conditions: NCI-60 five dose screen
Description: as §1

U251 = test: as above; format: cell-based; conditions: U-251, NCI-60 five dose screen
Description: as §1

Compound | EC50 (tubulin) | GI50 (MCF-7) | GI50 (OVCAR-8) | GI50 (A498) | GI50 (A549/ATCC) | GI50 (CCRF-CEM) | GI50 (COLO 205) | GI50 (HCT-116) | GI50 (HCT-15) | GI50 (HL-60(TB)) | GI50 (HS 578T) | GI50 (HT29) | GI50 (K-562) | GI50 (KM12) | GI50 (LOX IMVI) | GI50 (M14) | GI50 (MCF7) | GI50 (MDA-MB-435) | GI50 (MDA-MB-468) | GI50 (MOLT-4) | further results
C/C(=C\c1cc(C(F)(F)F)nn1CCNC(=O)OCC[Si](C)(C)C)[C@@H]1C[C@@H]2O[C@]2(C)CCC[C@H](C)[C@H](O)[C@@H](C)C(=O)C(C)(C)[C@@H](O)CC(=O)O1 [Compound 7] | > 40 µM | 1800 nM | 1300 nM | – | – | – | – | – | – | – | – | – | – | – | – | – | – | – | – | – | activity in initial one dose test [1]: did not exhibit significant activity
C/C(=C\c1ccn(-c2ccccc2N)n1)[C@@H]1C[C@@H]2O[C@]2(C)CCC[C@H](C)[C@H](O)[C@@H](C)C(=O)C(C)(C)[C@@H](O)CC(=O)O1 [Compound 10] | 8 ± 1 µM | 5.5 nM | 23 ± 10 nM | 18.8 nM | 34.5 nM | 22.6 nM | 20.4 nM | 18.3 nM | 32.5 nM | 17.2 nM | 31.6 nM | 18.8 nM | 24.4 nM | 20.6 nM | 31.3 nM | 18 nM | 17.7 nM | 9.56 nM | 23.4 nM | 27.6 nM | GI50 (HOP-92; read-out: GI50): 80.7 nM; GI50 (NCI-H23): 35.8 nM; GI50 (NCI-H460): 20.3 nM; GI50 (OVCAR-3): 18.8 nM; GI50 (PC-3): 34.3 nM; GI50 (RPMI-8226): 17.8 nM; GI50 (RXF 393): 39.6 nM; GI50 (SF-539): 15.8 nM; GI50 (SK-MEL-5): 21.9 nM; GI50 (SNB-75): 16.4 nM; GI50 (SR): 27.4 nM; GI50 (SW-620): 24.5 nM; GI50 (U251): 30.8 nM
CSc1cc(/C=C(\C)[C@@H]2C[C@@H]3O[C@]3(C)CCC[C@H](C)[C@H](O)[C@@H](C)C(=O)C(C)(C)[C@@H](O)CC(=O)O2)n(CCNC(=O)OC(C)(C)C)n1 [Compound 5] | > 40 µM | 1600 nM | 900 nM | – | – | – | – | – | – | – | – | – | – | – | – | – | – | – | – | – | activity in initial one dose test [1]: did not exhibit significant activity
C/C(=C\c1ccn(-c2ccc(N)cc2F)n1)[C@@H]1C[C@@H]2O[C@]2(C)CCC[C@H](C)[C@H](O)[C@@H](C)C(=O)C(C)(C)[C@@H](O)CC(=O)O1 [Compound 14] | 19 ± 1 µM | 14 ± 2 nM | 38 ± 10 nM | 80.2 nM | 37.6 nM | 13.6 nM | 18.2 nM | 17.1 nM | 22.6 nM | 14.1 nM | 37.2 nM | 18.4 nM | 20.7 nM | 17.7 nM | 23.1 nM | 18.7 nM | 14 nM | 8.35 nM | 20.9 nM | 28.3 nM | GI50 (HOP-92; dash defined by footnote e, read-out: GI50 (symbol)): > 100 nM; GI50 (NCI-H23): 24.2 nM; GI50 (NCI-H460): 20.8 nM; GI50 (OVCAR-3): 17.6 nM; GI50 (PC-3): 25.8 nM; GI50 (RPMI-8226): 19.6 nM; GI50 (RXF 393): 30.6 nM; GI50 (SF-539): 26.2 nM; GI50 (SK-MEL-5): 18 nM; GI50 (SNB-75): 11.7 nM; GI50 (SR): 29.2 nM; GI50 (SW-620): 23.6 nM; GI50 (U251): 36.2 nM
C/C(=C\c1ccn(-c2ccc(N)c(C(F)(F)F)c2)n1)[C@@H]1C[C@@H]2O[C@]2(C)CCC[C@H](C)[C@H](O)[C@@H](C)C(=O)C(C)(C)[C@@H](O)CC(=O)O1 [Compound 11] | 2.5 ± 0.5 µM | 3 ± 1 nM | 2.5 ± 0.4 nM | 11.3 nM | 13.4 nM | 12.3 nM | 8.48 nM | 4.82 nM | 11 nM | 7.36 nM | 7.1 nM | 5.74 nM | 10.2 nM | 9.16 nM | 10.3 nM | 4.88 nM | < 3.25 nM | < 3.25 nM | 10.6 nM | 14.2 nM | GI50 (HOP-92; read-out: GI50): 16.1 nM; GI50 (NCI-H23): 18.3 nM; GI50 (NCI-H460): 8.73 nM; GI50 (OVCAR-3): 10.2 nM; GI50 (PC-3): 12.7 nM; GI50 (RPMI-8226): 9.98 nM; GI50 (RXF 393): 14 nM; GI50 (SF-539): 9.55 nM; GI50 (SK-MEL-5): 10.1 nM; GI50 (SNB-75): 5.75 nM; GI50 (SR): 7.29 nM; GI50 (SW-620): 6.23 nM; GI50 (U251): 14.6 nM
C/C(=C\c1cc(C(F)(F)F)nn1CCNC(=O)OC(C)(C)C)[C@@H]1C[C@@H]2O[C@]2(C)CCC[C@H](C)[C@H](O)[C@@H](C)C(=O)C(C)(C)[C@@H](O)CC(=O)O1 [Compound 6] | > 40 µM | 4400 nM | 1200 nM | – | – | – | – | – | – | – | – | – | – | – | – | – | – | – | – | – | activity in initial one dose test [1]: did not exhibit significant activity
C/C(=C\c1cc(C(F)(F)F)n(-c2ccc(N)cc2)n1)[C@@H]1C[C@@H]2O[C@]2(C)CCC[C@H](C)[C@H](O)[C@@H](C)C(=O)C(C)(C)[C@@H](O)CC(=O)O1 [Compound 9] | > 40 µM | 900 nM | 300 nM | 66 nM | 48.8 nM | 47.6 nM | 14.7 nM | 5.31 nM | 22 nM | 7.88 nM | 36.4 nM | 5.29 nM | 15.7 nM | 5.25 nM | 25 nM | 13.7 nM | 3.65 nM | 2.08 nM | 23.1 nM | 48.1 nM | GI50 (HOP-92; read-out: GI50): 183 nM; GI50 (NCI-H23): 88.5 nM; GI50 (NCI-H460): 6.45 nM; GI50 (OVCAR-3): 15.8 nM; GI50 (PC-3): 32.2 nM; GI50 (RPMI-8226): 11.1 nM; GI50 (RXF 393): 40.7 nM; GI50 (SF-539): 24.8 nM; GI50 (SK-MEL-5): 22.1 nM; GI50 (SW-620): 5.4 nM; GI50 (U251): 38.1 nM
C/C(=C\c1ccn(-c2ccc(N)c(F)c2)n1)[C@@H]1C[C@@H]2O[C@]2(C)CCC[C@H](C)[C@H](O)[C@@H](C)C(=O)C(C)(C)[C@@H](O)CC(=O)O1 [Compound 12] | 7.8 ± 1 µM | 2.5 nM | 1.8 ± 0.4 nM | < 5 nM | 6.05 nM | 6.09 nM | < 5 nM | < 5 nM | < 5 nM | < 5 nM | 5.51 nM | < 5 nM | < 5 nM | < 5 nM | < 5 nM | < 5 nM | < 5 nM | < 5 nM | 7.22 nM | < 5 nM | GI50 (HOP-92; read-out: GI50): < 5 nM; GI50 (NCI-H23): 5.72 nM; GI50 (NCI-H460): < 5 nM; GI50 (OVCAR-3): < 5 nM; GI50 (PC-3): 9.75 nM; GI50 (RPMI-8226): < 5 nM; GI50 (RXF 393): 9.39 nM; GI50 (SF-539): 9.41 nM; GI50 (SK-MEL-5): < 5 nM; GI50 (SNB-75): < 5 nM; GI50 (SR): < 5 nM; GI50 (SW-620): < 5 nM; GI50 (U251): < 5 nM
C/C(=C\c1ccn(-c2ccc(N)cc2)n1)[C@@H]1C[C@@H]2O[C@]2(C)CCC[C@H](C)[C@H](O)[C@@H](C)C(=O)C(C)(C)[C@@H](O)CC(=O)O1 [Compound 8] | 15 ± 4 µM | 10 nM | 38 ± 10 nM | 102 nM | 36.9 nM | 34.1 nM | 18.6 nM | 18.7 nM | 26.7 nM | 15.8 nM | 44 nM | 19.6 nM | 24.7 nM | 19.2 nM | 23.6 nM | 19.2 nM | 15.2 nM | 8.09 nM | 39.2 nM | 38.9 nM | GI50 (HOP-92; read-out: GI50): 146 nM; GI50 (NCI-H23): 25.2 nM; GI50 (NCI-H460): 20.5 nM; GI50 (OVCAR-3): 18.1 nM; GI50 (PC-3): 30.4 nM; GI50 (RPMI-8226): 21.3 nM; GI50 (RXF 393): 38.4 nM; GI50 (SF-539): 19 nM; GI50 (SK-MEL-5): 20 nM; GI50 (SNB-75): 11.4 nM; GI50 (SR): 30.3 nM; GI50 (SW-620): 25 nM; GI50 (U251): 35.6 nM
